Series [1] has as its system E. coli ATCC 25922. The settings on record: cited from earlier work. An excerpt:
(§1) Antimicrobial peptides (AMPs) are considered as promising alternatives to common antibiotics that threateningly lose their therapeutic potentials against multidrug-resistant pathogens (Fox, [2013]; Wang et al., [2015]). In contrast to approved therapeutic peptide hormones, antimicrobial peptides have to be administered at much higher doses, which may amplify general drawbacks of peptide therapeutics. For example, the diabetes peptide drugs exenatide and pramlintide are given at daily doses of 20 μg (Byetta®; ~0.5 μg/kg) and 120 μg (Symlin®; ~1.5 μg/kg; Heine et al., [2005]; Hay et al., [2015]) ... || Apidaecin analogs Api88 and Api137 are similarly active against Gram-negative bacteria with a tendency of higher activity of Api88 against K. pneumoniae (Czihal et al., [2012]; Berthold et al., [2013]). However, Api88 carries a C-terminal amide that is responsible for its very fast proteolytic cleavage in serum, the supernatant obtained after complete coagulation and centrifugation of blood. The in vitro serum stability assay, which is an important in vitro criterion to select therapeutic peptides for systemic applications, yielded very short half-life times of 5 min for Api88, which indicate ...

In series [2] the test system is E. coli ATCC 25922. The settings on record: same infection model; ref Schmidt et al., 2016; cited from earlier work.
Excerpt: as §1, with “[…] Api137 appeared more efficient in this septicemia model due to” for “For example,”, “better scores obtained” for “diabetes peptide drugs exenatide and pramlintide are given”, “at” for “at daily doses of 20 μg (Byetta®; ~0.5 μg/kg) and 120 μg (Symlin®; ~1.5 μg/kg; Heine et al., [2005]; Hay et al., [2015])”

The next series has as its target 70S ribosomes. The settings on record: fluorescence polarization assay; ref Krizsan et al., 2014; cited from earlier work. The source says:
Antimicrobial peptides (AMPs) are considered as promising alternatives to common antibiotics that threateningly lose their therapeutic potentials against multidrug-resistant pathogens (Fox, [2013]; Wang et al., [2015]). In contrast to approved therapeutic peptide hormones, antimicrobial peptides have to be administered at much higher doses, which may amplify general drawbacks of peptide therapeutics. For example, the diabetes peptide drugs exenatide and pramlintide are given at daily doses of 20 μg (Byetta®; ~0.5 μg/kg) and 120 μg (Symlin®; ~1.5 μg/kg; Heine et al., [2005]; Hay et al., [2015]) ...
Background: In fluorescence polarisation assays a small probe gives low polarisation when free and higher when bound to something large.

The conditions of series [3]: mouse, in vivo, ip; cited from earlier work. The source says: Apidaecin analogs Api88 and Api137 are similarly active against Gram-negative bacteria with a tendency of higher activity of Api88 against K. pneumoniae (Czihal et al., [2012]; Berthold et al., [2013]). However, Api88 carries a C-terminal amide that is responsible for its very fast proteolytic cleavage in serum, the supernatant obtained after complete coagulation and centrifugation of blood. The in vitro serum stability assay, which is an important in vitro criterion to select therapeutic peptides for systemic applications, yielded very short half-life times of 5 min for Api88, which indicate ...

For series [4] the following is noted: mouse, in vivo, ip, 5 mg/kg; cited from earlier work. An excerpt:
The recovery rates obtained from the spiked samples, were used to calculate the total amounts of intact peptides in blood, liver, and kidneys after intraperitoneal administration (Figures 6B–E, Tables S10, S11). The relative recovery in the studied organs and blood was only around 1.5 ± 0.6–2.1 ± 0.7% of the injected peptide amounts. Considering the mean weight of 29 g per mouse in this study and the weights of blood, liver, two kidneys, and brain with 2.2, 1.5, 0.5, and 0.5 g, respectively (~16% of the total weight), around 12% of the injected peptide quantities were detected in the samples c ...

The next series can be described thus: in vitro. The format is in vitro ADME, CD-1 mice. The settings on record: female, CD-1, mouse, cerebrospinal or other body fluid. The protocol:
Peritoneal lavage (1.5–2 mL) were collected from three euthanized female CD-1 mice (14 weeks, 32–33 g) after injecting sterile PBS intraperitoneal (4 mL). Peptides were incubated with aliquots (95 μL) of fresh lavage (75 μg/mL, 37°C, 750 rpm). After 0, 30, and 60 min trichloroacetic acid (25 μL, 15% w/v) was added to the samples to precipitate proteins, incubated on ice (10 min), and centrifuged (5 min, 12.400 × g). Supernatants were neutralized with sodium hydroxide (1 mol/L) and analyzed by RP-HPLC using a Poroshell 120 SB-C18-column (2.1 mm internal diameter, 100 mm length, 2.7 μm particle size, 12 nm pore size, Agilent Technologies Inc., Santa Clara, CA, USA) at 60°C and an aqueous acetonitrile gradient containing trifluoroacetic acid (0.1%, v/v). Absorbance was recorded at a wavelength of 214 nm.

The conditions of series [5]: cited from earlier work. The source says: Proline-rich antimicrobial peptides (PrAMPs) represent promising alternative therapeutic options for the treatment of multidrug-resistant bacterial infections. PrAMPs are predominantly active against Gram-negative bacteria by inhibiting protein expression via at least two different modes of action, i.e., blocking the ribosomal exit tunnel of 70S ribosomes (oncocin-type binding) or inhibiting the assembly of the 50S ribosomal subunit (apidaecin-type binding). The in vivo efficacy and favorable biodistribution of oncocins confirmed the therapeutic potential of short PrAMPs for the first time, wh ... || Antimicrobial peptides (AMPs) are considered as promising alternatives to common antibiotics that threateningly lose their therapeutic potentials against multidrug-resistant pathogens (Fox, [2013]; Wang et al., [2015]). In contrast to approved therapeutic peptide hormones, antimicrobial peptides have to be administered at much higher doses, which may amplify general drawbacks of peptide therapeutics. […]

The nature of series [6]: fresh peritoneal lavage (PBS injected intraperitoneal), ex vivo. The settings on record: CD-1 mice, 37°C, up to 60 min.
Series [7] can be described thus: Lithium-heparin plasma after intraperitoneal administration. The settings on record: NMRI mice, up to 90 min.
Another series in a line: mouse serum in vitro. The settings on record: cited from earlier work.
Series [8] in a line: plasma after intravenous administration. The settings on record: CD-1 mice, up to 60 min.
A short description of series [9]: liver homogenates after intraperitoneal administration. The settings on record: NMRI mice, up to 90 min.
Setting [10] is: metabolites, in vitro, no method in this paper, reference not given.
Where [11] appears, read: E. coli ATCC 25922, ref Knappe et al., 2016c.

pKd: −log10 of the molar value. Values after ≈ are worked out from the molar mass of the structure shown. “Also recorded” adds a separate entry of the source. Like-named read-outs stand apart in the source and are kept apart here. Where a SMILES comes first, the peptide text is derived from it. [ ]: non-standard residue; d: D form. The star is where a group is joined. Orn(α-tetramethylguanidino) = CN(C)C(=N[C@@H](CCCN)C(=O)*)N(C)C; Orn = NCCC[C@H](N)C(=O)O

For orientation: MIC means the lowest concentration that inhibits growth of the organism. In general, pKd refers to −log10 of the Kd, conventionally taken in molar units. As usually defined, the amount remaining is what is left of the initial amount, in per cent. Low readings indicate a greater loss, high ones greater stability.

Take `CC[C@H](C)[C@H](NC(=O)[C@H](Cc1ccc(O)cc1)NC(=O)[C@@H](NC(=O)[C@@H]1CCCN1C(=O)[C@H](CCCNC(=N)N)NC(=O)[C@H](CC(N)=O)NC(=O)[C@H](CC(N)=O)NC(=O)[C@H](CCCN)N=C(N(C)C)N(C)C)C(C)C)C(=O)N1CCC[C@H]1C(=O)N[C@@H](CCCNC(=N)N)C(=O)N1CCC[C@H]1C(=O)N[C@@H](CCCNC(=N)N)C(=O)N1CCC[C@H]1C(=O)N1CCC[C@H]1C(=O)N[C@@H](Cc1c[nH]cn1)C(=O)N1CCC[C@H]1C(=O)O` [Api1-16] ({Orn(α-tetramethylguanidino)}-NNRPVYIPRPRPPHP-OH): in the series with E. coli ATCC 25922 [1] (setting [10]), the minimum inhibitory concentration (MIC) was > 128 µg/mL.
As to `CC[C@H](C)[C@H](NC(=O)[C@H](Cc1ccc(O)cc1)NC(=O)[C@@H](NC(=O)[C@@H]1CCCN1C(=O)[C@H](CCCNC(=N)N)NC(=O)[C@H](CC(N)=O)NC(=O)[C@H](CC(N)=O)NC(=O)[C@H](CCCN)N=C(N(C)C)N(C)C)C(C)C)C(=O)N1CCC[C@H]1C(=O)N[C@@H](CCCNC(=N)N)C(=O)N1CCC[C@H]1C(=O)N[C@@H](CCCNC(=N)N)C(=O)N1CCC[C@H]1C(=O)N1CCC[C@H]1C(=O)N[C@@H](Cc1c[nH]cn1)C(=O)N1CCC[C@H]1C(=O)N[C@@H](CCCNC(=N)N)C(=O)O` [Api1-17] ({Orn(α-tetramethylguanidino)}-NNRPVYIPRPRPPHPR-OH), in the series on E. coli ATCC 25922 [1] (setting [10]), the MIC is 64 µg/mL.
For `CC[C@H](C)[C@H](NC(=O)[C@H](CCCN)NC(=O)[C@H](CCCNC(=N)N)NC(=O)[C@@H]1CCCN1C(=O)[C@@H]1CCCN1C(=O)[C@H](CCCNC(=N)N)NC(=O)[C@@H]1CCCN1C(=O)[C@H](CCCNC(=N)N)NC(=O)[C@@H]1CCCN1C(=O)[C@H](CC(C)C)NC(=O)[C@H](Cc1ccc(O)cc1)NC(=O)[C@@H]1CCCN1C(=O)[C@@H]1CCCN1C(=O)[C@H](CCCCN)NC(=O)[C@H](CC(=O)O)NC(=O)[C@@H](N)C(C)C)C(=O)N[C@@H](Cc1ccc(O)cc1)C(=O)N[C@@H](CC(N)=O)C(=O)N[C@@H](CCCN)C(N)=O` [Onc72, reference compound] (H-VDKPPYLPRPRPPR[Orn]IYN[Orn]-NH2; N-terminus and C-terminus assumed), the maximum plasma levels relative to Api88 and Api137 is < 10 fold. Also, in the series with E. coli ATCC 25922 [2], the “Dose rescuing all animals” value is on record as 5 mg/kg. Besides, at 70S ribosomes, the negative-log Kd (pKd) is 6.35. Also, in series [3], the “Maximum plasma level reported for oncocins, compared with lower dose groups” value is 6 µg/mL and the “Plasma level reported for oncocin, compared with high dose groups” value was 18000 ng/mL. Besides, the “Recovery rate of injected peptide” value in [4] is 47%. In addition, in “in vitro”, the share remaining at 1 h, 75 μg/mL was > 89%. Also, in the series on E. coli ATCC 25922 [1] (setting [11]), the MIC was 16 µg/mL (≈ 6.94 µM).
Regarding `CC[C@H](C)[C@H](NC(=O)[C@@H](CCCNC(=N)N)NC(=O)[C@H](CCCNC(=N)N)NC(=O)[C@@H]1CCCN1C(=O)[C@@H]1CCCN1C(=O)[C@H](CCCNC(=N)N)NC(=O)[C@@H]1CCCN1C(=O)[C@H](CCCNC(=N)N)NC(=O)[C@@H]1CCCN1C(=O)[C@H](CC(C)C)NC(=O)[C@H](Cc1ccc(O)cc1)NC(=O)[C@@H]1CCCN1C(=O)[C@@H]1CCCN1C(=O)[C@H](CCCCN)NC(=O)[C@H](CC(=O)O)NC(=O)[C@@H](N)C(C)C)C(=O)N[C@@H](Cc1ccc(O)cc1)C(=O)N[C@@H](CC(N)=O)C(=O)N[C@H](CCCNC(=N)N)C(N)=O` [Onc112, reference compound] (H-VDKPPYLPRPRPPR[dR]IYN[dR]-NH2; N-terminus and C-terminus assumed), the maximum plasma levels relative to Api88 and Api137 was < 10 fold. Further, the “Dose rescuing all animals” value with E. coli ATCC 25922 [2] is on record as 2.5 mg/kg. In addition, the pKd on 70S ribosomes was 7.05. Moreover, in series [3], the “Maximum plasma level reported for oncocins, compared with lower dose groups” value was 8 µg/mL. In addition, the Serum half-life time entry in [5] was “exceeded 8 h”. For the same compound, the “Recovery rate of injected peptide” value in series [4] is given as 32%. For the same compound, the amount remaining at 1 h, 75 μg/mL in the series “in vitro” was > 89%. For the same compound, the MIC with E. coli ATCC 25922 [1] (setting [11]) was 4 µg/mL (≈ 1.67 µM).
With gu-ONNRPVYIPRPRPPHPRL-NH2, the fragment found result in series [6] is recorded as “Api1-17, major, 30 min”; in series [7], “Api1-16, major, 10 min; also recorded: Api2-16; also recorded: Api7-18; also recorded: Api3-18; also recorded: Api7-12; also recorded: Api1-6; also recorded: Api1-17, major, 10 min”; in “mouse serum in vitro”, “Api1-17, major; also recorded: Api1-16, major”; in [8] it was “Api1-17, major, 5 min; also recorded: Api1-16, major, 5 min”; in series [9] it was “Api1-17, major; also recorded: Api1-16, major”.
Regarding gu-ONNRPVYIPRPRPPHPRL-OH, the fragment found entry is “Api1-17, major, 30 min” in series [6]; “Api1-17, major, 10 min; also recorded: Api1-16, major, 10 min; also recorded: Api7-12, minor; also recorded: Api2-16, minor; also recorded: Api2-18, minor” in series [7]; “Api1-17, major; also recorded: Api1-16, major” in “mouse serum in vitro”; “Api1-17, major; also recorded: Api1-16, major” in series [9].

Values taken from article PMC5357639 (Frontiers in Chemistry, 2017).
